Measured values taken from PubChem BioAssay (NCI).
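GI50 = concentration required for 50% inhibition of growth. TGI denotes the concentration required for complete inhibition of growth.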

What was measured:
Test in all cases: DTP human tumour cell line panel, 384-well format
U251 glioblastoma = test system: U251 glioblastoma
OVCAR-8 ovarian = test system: OVCAR-8 ovarian
LOX IMVI melanoma = test system: LOX IMVI melanoma
NCI-H522 lung = test system: NCI-H522 lung
HT29 colon = test system: HT29 colon
SK-MEL-28 melanoma = test system: SK-MEL-28 melanoma
SN12C renal = test system: SN12C renal
IGROV1 ovarian = test system: IGROV1 ovarian
RXF 393 renal = test system: RXF 393 renal
NCI-H460 NSCLC = test system: NCI-H460 NSCLC
MOLT-4 leukemia = test system: MOLT-4 leukemia
SF-295 CNS = test system: SF-295 CNS
MALME-3M melanoma = test system: MALME-3M melanoma
NCI-H322M lung = test system: NCI-H322M lung
MDA-MB-231 breast = test system: MDA-MB-231 breast
UO-31 renal = test system: UO-31 renal
786-0 renal = test system: 786-0 renal
BT-549 breast = test system: BT-549 breast
OVCAR-5 ovarian = test system: OVCAR-5 ovarian
NCI-H226 lung = test system: NCI-H226 lung
RPMI-8226 leukemia = test system: RPMI-8226 leukemia
HCC-2998 colon = test system: HCC-2998 colon
OVCAR-3 ovarian = test system: OVCAR-3 ovarian
SF-268 CNS = test system: SF-268 CNS
SW-620 colon = test system: SW-620 colon
SNB-19 CNS = test system: SNB-19 CNS
UACC-62 melanoma = test system: UACC-62 melanoma
A549 NSCLC = test system: A549 NSCLC
HOP-62 NSCLC = test system: HOP-62 NSCLC
PC-3 prostate = test system: PC-3 prostate
NCI-H23 lung = test system: NCI-H23 lung
EKVX NSCLC = test system: EKVX NSCLC
T-47D breast = test system: T-47D breast
UACC-257 melanoma = test system: UACC-257 melanoma
KM12 colon = test system: KM12 colon
SK-MEL-5 melanoma = test system: SK-MEL-5 melanoma
SF-539 CNS = test system: SF-539 CNS
ACHN renal = test system: ACHN renal
DU-145 prostate = test system: DU-145 prostate
CAKI-1 renal = test system: CAKI-1 renal
M14 melanoma = test system: M14 melanoma
SNB-75 CNS = test system: SNB-75 CNS
HL-60(TB) leukemia = test system: HL-60(TB) leukemia
CCRF-CEM leukemia = test system: CCRF-CEM leukemia
MDA-MB-468 breast = test system: MDA-MB-468 breast
NCI/ADR-RES ovarian = test system: NCI/ADR-RES ovarian
MDA-MB-435 melanoma = test system: MDA-MB-435 melanoma
HS 578T breast = test system: HS 578T breast
COLO 205 colon = test system: COLO 205 colon
HCT-15 colon = test system: HCT-15 colon
K-562 leukemia = test system: K-562 leukemia
TK-10 renal = test system: TK-10 renal
A498 renal = test system: A498 renal
MCF7 breast = test system: MCF7 breast
OVCAR-4 ovarian = test system: OVCAR-4 ovarian
HCT-116 colon = test system: HCT-116 colon
HOP-92 NSCLC = test system: HOP-92 NSCLC
SK-OV-3 ovarian = test system: SK-OV-3 ovarian

SMILES: CNC(=O)c1c(F)cccc1Nc1nc(Nc2cc3c(cc2OC)CCN3C(=O)CN(C)C)nc2[nH]ccc12
- GI50 (U251 glioblastoma): 1900 nM
- TGI (U251 glioblastoma): 3350 nM
- GI50 (OVCAR-8 ovarian): 1710 nM
- TGI (OVCAR-8 ovarian): 3120 nM
- GI50 (LOX IMVI melanoma): 1610 nM
- TGI (LOX IMVI melanoma): 2970 nM
- GI50 (NCI-H522 lung): 1910 nM
- TGI (NCI-H522 lung): 3330 nM
- GI50 (HT29 colon): 181 nM
- TGI (HT29 colon): 1870 nM
- GI50 (SK-MEL-28 melanoma): 1870 nM
- TGI (SK-MEL-28 melanoma): 3270 nM
- GI50 (SN12C renal): 2050 nM
- TGI (SN12C renal): 3500 nM
- GI50 (IGROV1 ovarian): 1760 nM
- TGI (IGROV1 ovarian): 3270 nM
- GI50 (RXF 393 renal): 1720 nM
- TGI (RXF 393 renal): 3110 nM
- GI50 (NCI-H460 NSCLC): 1240 nM
- TGI (NCI-H460 NSCLC): 2530 nM
- GI50 (MOLT-4 leukemia): 968 nM
- TGI (MOLT-4 leukemia): 2140 nM
- GI50 (SF-295 CNS): 1870 nM
- TGI (SF-295 CNS): 3290 nM
- GI50 (MALME-3M melanoma): 1250 nM
- TGI (MALME-3M melanoma): 2510 nM
- GI50 (NCI-H322M lung): 1580 nM
- TGI (NCI-H322M lung): 3180 nM
- GI50 (MDA-MB-231 breast): 1590 nM
- TGI (MDA-MB-231 breast): 2980 nM
- GI50 (UO-31 renal): 1840 nM
- TGI (UO-31 renal): 3290 nM
- GI50 ([…]-0 renal): 1480 nM
- TGI (786-0 renal): 2840 nM
- GI50 (BT-549 breast): 1660 nM
- TGI (BT-549 breast): 3040 nM
- GI50 (OVCAR-5 ovarian): 1480 nM
- TGI (OVCAR-5 ovarian): 3240 nM
- GI50 (NCI-H226 lung): 1740 nM
- TGI (NCI-H226 lung): 3740 nM
- GI50 (RPMI-8226 leukemia): 1140 nM
- TGI (RPMI-8226 leukemia): 2370 nM
- GI50 (HCC-2998 colon): 1410 nM
- TGI (HCC-2998 colon): 2760 nM
- GI50 (OVCAR-3 ovarian): 1800 nM
- TGI (OVCAR-3 ovarian): 3250 nM
- GI50 (SF-268 CNS): 1300 nM
- TGI (SF-268 CNS): 2610 nM
- GI50 (SW-620 colon): 1180 nM
- TGI (SW-620 colon): 2440 nM
- GI50 (SNB-19 CNS): 2350 nM
- TGI (SNB-19 CNS): 4810 nM
- GI50 (UACC-62 melanoma): 1560 nM
- TGI (UACC-62 melanoma): 2910 nM
- GI50 (A549 NSCLC): 1410 nM
- TGI (A549 NSCLC): 2760 nM
- GI50 (HOP-62 NSCLC): 1830 nM
- TGI (HOP-62 NSCLC): 3390 nM
- GI50 (PC-3 prostate): 2190 nM
- TGI (PC-3 prostate): 4450 nM
- GI50 (NCI-H23 lung): 1330 nM
- TGI (NCI-H23 lung): 2750 nM
- GI50 (EKVX NSCLC): 1600 nM
- TGI (EKVX NSCLC): 3090 nM
- GI50 (T-47D breast): 1940 nM
- TGI (T-47D breast): 3380 nM
- GI50 (UACC-257 melanoma): 1720 nM
- TGI (UACC-257 melanoma): 3110 nM
- GI50 (KM12 colon): 1440 nM
- TGI (KM12 colon): 2770 nM
- GI50 (SK-MEL-5 melanoma): 1220 nM
- TGI (SK-MEL-5 melanoma): 2480 nM
- GI50 (SF-539 CNS): 1800 nM
- TGI (SF-539 CNS): 3200 nM
- GI50 (ACHN renal): 1740 nM
- TGI (ACHN renal): 3170 nM
- GI50 (DU-145 prostate): 1820 nM
- TGI (DU-145 prostate): 3600 nM
- GI50 (CAKI-1 renal): 1820 nM
- TGI (CAKI-1 renal): 3240 nM
- GI50 (M14 melanoma): 1510 nM
- TGI (M14 melanoma): 2840 nM
- GI50 (SNB-75 CNS): 2000 nM
- TGI (SNB-75 CNS): 3460 nM
- GI50 (HL-60(TB) leukemia): 71.1 nM
- TGI (HL-60(TB) leukemia): 944 nM
- GI50 (CCRF-CEM leukemia): 387 nM
- TGI (CCRF-CEM leukemia): 1220 nM
- GI50 (MDA-MB-468 breast): 1560 nM
- TGI (MDA-MB-468 breast): 2920 nM
- GI50 (NCI/ADR-RES ovarian): 2230 nM
- TGI (NCI/ADR-RES ovarian): 4980 nM
- GI50 (MDA-MB-435 melanoma): 1510 nM
- TGI (MDA-MB-435 melanoma): 2860 nM
- GI50 (HS 578T breast): 1780 nM
- TGI (HS 578T breast): 3190 nM
- GI50 (COLO 205 colon): 152 nM
- TGI (COLO 205 colon): 1230 nM
- GI50 (HCT-15 colon): 1250 nM
- TGI (HCT-15 colon): 2610 nM
- GI50 (K-562 leukemia): 1750 nM
- TGI (K-562 leukemia): 3140 nM
- GI50 (TK-10 renal): 1860 nM
- TGI (TK-10 renal): 3540 nM
- GI50 (A498 renal): 1820 nM
- TGI (A498 renal): 3220 nM
- GI50 (MCF7 breast): 210 nM
- TGI (MCF7 breast): 1720 nM
- GI50 (OVCAR-4 ovarian): 1990 nM
- TGI (OVCAR-4 ovarian): 3500 nM
- GI50 (HCT-116 colon): 1440 nM
- TGI (HCT-116 colon): 2790 nM
- GI50 (HOP-92 NSCLC): 1150 nM
- TGI (HOP-92 NSCLC): 2420 nM
- GI50 (SK-OV-3 ovarian): 1970 nM
- TGI (SK-OV-3 ovarian): 3450 nM
